Source: patent publication US5459160A, “Iridoid derivatives and the use thereof as a drug” (Tsumura & Co., priority 1990, dated 1995)

Assays:
hyperlipemia = assay: Anti-hyperlipemia test in rats on high fat food (Experimental Example 1); format: in vivo, Male Wistar rats; conditions: peroral once a day, two weeks, control 100, Table 1
From the text: Male Wistar rats 6.5 weeks old were allowed to freely intake a high fat food (containing 1% of cholesterol, 0.5% of sodium cholate, 12% of beef tallow and 20% of standard chow) in the cource of two weeks, to thus cause an outbreak of hyperlipemia. The dose of the drug was started simultaneously with the application of the high fat food, and was perorally given once a day through a stomach tube until the end of the experiment. The drugs were all suspended in a cane sugar fatty acid ester and were administered. The oily compounds were adjusted in advance to 100 mg/m.iota. by diethyl ether. A suitable amount was collected at the time of the dose and after diethyl ether was evaporated and removed, it was suspended in a cane sugar fatty acid ester (1% ryoto sugar ester) and then given. After the final dose of the drug, the rats were fasted for about 18 hours, and the blood was sampled to measure the blood serum lipid. The blood serum lipid was measured by using a TBA-380 biochemical analyzer (a product of Toshiba Medical Co.,) unless a particular hindrance occurred.

bile secretion = assay: Cholagogic action, bile secretion (Experimental Example 5); format: in vivo, male Wistar rats; conditions: intraduodenal
Method: After male Wistar rats 7 weeks old were fasted for 24 hours, they were anesthetized by the interperitoneal administration of 1.25 g/kg (volume 2 m.iota./kg) of urethane. A polyethylene canula (SP-10, a product of Natsume Seisakusho) was inserted into a bile duct and after the bile was caused to flow out for 30 minutes, the bile was collected in the cource of 1 hour. Thereafter, each test drug was suspended or dissolved in a 1% aqueous Tween-80 solution, and was administered into the duodenum at a rate of 5 m.iota./kg. Furthermore, the bile was collected every hour in the course of five hours, and its weight was measured. Only a 1% Tween-80 solution was given as a control.
The results are tabulated in Tables 6, 7, 8, 9 and 10, wherein the bile secretion amount every hour was represented by a percentage with the bile secretion amount (mg) one hour before the dose of the test drug being 100.

Acute toxicity test = conditions: mouse, in vivo, ip; male S.P.P. mice, abdominally administered; Table 11
Method: The acute toxicity test was carried out by abdominally administering each test drug to male S.P.P. mice and determining an LD50 value.

[1] = 0-1 hour after dose, control 81.1, Table 9
[2] = 1-2 hour after dose, control 66.6, Table 9
[3] = 2-3 hour after dose, control 55.8, Table 9
[4] = 3-4 hour after dose, control 49.0, Table 9
[5] = 4-5 hour after dose, control 42.8, Table 9

SMILES | Bile secretion amount, percentage of the hour before dose (bile secretion; [1]) [%] | Bile secretion amount, percentage of the hour before dose (bile secretion; [2]) [%] | Bile secretion amount, percentage of the hour before dose (bile secretion; [3]) [%] | Bile secretion amount, percentage of the hour before dose (bile secretion; [4]) [%] | Bile secretion amount, percentage of the hour before dose (bile secretion; [5]) [%] | LD50 (Acute toxicity test) [mg/kg] | other results
COC(=O)C1=CO[C@@H](O[C@@H]2O[C@H](CO)[C@@H](O)[C@H](O)[C@H]2O)[C@@H]2C(C)=CC[C@H]12 [Definite Example 8, methyl (1S, 4aS, 7aS)-1-(β-D-glucopyranosyloxy)-1,4a, 5,7a-tetrahydro-7-methylcyclopenta[c]pyran-4-carboxylate] | 85.0 | 71.7 | 60.1 | 50.6 | 44.4 |  | Blood serum cholesterol (%) (hyperlipemia; 10 mg/kg): 94.4%; Blood serum triglyceride (%) (hyperlipemia; 10 mg/kg): 82.5%; Blood serum cholesterol (%) (hyperlipemia; 30 mg/kg): 54.8%; Blood serum triglyceride (%) (hyperlipemia; 30 mg/kg): 68.7%
COC(=O)C1=COC2OCC3CCC1C32 [Definite Example 12, methyl (iS, 4aS, 7R, 7aS)-1,7-(epoxymethano)-1,4a, 5,6,7,7a-hexahydrocyclopenta[c]pyran-4-carboxylate] |  |  |  |  |  | 527 | 
OCC1=CC[C@@H]2C(CO)=CO[C@@H](OC3CCCCO3)[C@H]12 (stereo partly drawn) [Definite Example 17, (1S, 4aS, 7aS)-4,7-bis (hydroxymethyl)-1,4a, 5,7a-tetrahydro-1-(2-tetrahydropyranyloxy)cyclopenta[c]pyran] |  |  |  |  |  |  | Bile secretion amount, percentage of the hour before dose (bile secretion; 0-1 hour after dose, control 82.9, Table 10): 115.7%; Bile secretion amount, percentage of the hour before dose (bile secretion; 1-2 hour after dose, control 74.1, Table 10): 77.3%; Bile secretion amount, percentage of the hour before dose (bile secretion; 2-3 hour after dose, control 66.1, Table 10): 62.9%; Bile secretion amount, percentage of the hour before dose (bile secretion; 3-4 hour after dose, control 59.8, Table 10): 54.0%; Bile secretion amount, percentage of the hour before dose (bile secretion; 4-5 hour after dose, control 53.3, Table 10): 47.2%
COC(=O)C1=COC(=O)[C@@H]2C(CO)=CC[C@H]12 [Definite Example 20, methyl (4aS, 7aS)-1,4a, 5,7a-tetrahydro-7-(hydroxymethyl)-1-oxocyclopenta[c]pyran-4-carboxylate] | 82.6 | 66.8 | 55.1 | 48.6 | 42.8 |  | 
CC(C)(C)[Si](C)(C)OCC1=CC[C@@H]2C(CO)=CO[C@@H](O[Si](C)(C)C(C)(C)C)[C@H]12 [Definite Example 34, (1S, 4aS, 7aS)-1-(tert-butyldimethylsilyloxy)-7-[(tert-butyldimethylsilyloxy)methyl]-1,4a, 5,7a-tetrahydro-4-(hydroxymethyl)cyclopenta[c]pyran] |  |  |  |  |  | 511 | 
COC(=O)C1=CO[C@@H](OC2CCCCO2)[C@@H]2C(CO)=CC[C@H]12 (single isomer, unassigned) [Definite Example 16] |  |  |  |  |  | 412 | 
COC(=O)C1=COC(=O)[C@@H]2C(CO[Si](C)(C)C(C)(C)C)=CC[C@H]12 [Definite Example 19] |  |  |  |  |  | 355 | 
COC(=O)C1=COC(O)[C@H]2[C@@H]1CC1OC12C (stereo partly drawn) [Definite Example 35, methyl (4aS, 7aS)-6,7-epoxy-1,4a,5,6,7,7a-hexahydro-1-hydroxy-7-methylcyclopenta[c]pyran-4-carboxylate] |  |  |  |  |  |  | Bile secretion amount, percentage of the hour before dose (bile secretion; 0-1 hour after dose, control 87.7, Table 7): 110.4%; Bile secretion amount, percentage of the hour before dose (bile secretion; 1-2 hour after dose, control 75.3, Table 7): 85.2%; Bile secretion amount, percentage of the hour before dose (bile secretion; 2-3 hour after dose, control 65.0, Table 7): 71.4%; Bile secretion amount, percentage of the hour before dose (bile secretion; 3-4 hour after dose, control 58.7, Table 7): 61.1%; Bile secretion amount, percentage of the hour before dose (bile secretion; 4-5 hour after dose, control 51.8, Table 7): 53.5%
COC(=O)C1=COC(=O)[C@H]2[C@@H]1CC[C@@H]2C [Definite Example 5, methyl (4aS, 7S, 7aR)-1,4a, 5,6,7,7a-hexahydro-7-methyl-1-oxocyclopenta[c]pyran-4-carboxylate] | 105.0 | 78.0 | 62.0 | 52.6 | 45.1 |  | 
